# From BindingDB's records for doi:10.1021/jm030233b (Pharmacia, 2003)
# Biological target: Prothrombin (Homo sapiens, UniProt P00734)
# Assay: Thrombin Assay
# Settings: pH 8; 22 °C
# Experimental: Human thrombin and substrate were added to a 96-well assay plate containing inhibitor in reaction buffer. […] All compounds were assayed in duplicate at seven concentrations. Percent inhibition at each concentration was calculated from OD405nm value from the experimental and control sample. IC50 values were calculated from a four-parameter logistic regression equation.
row,IC50 [µM],Compound
1,10,N=C(N)c1ccc(CNC(=O)Cc2c(-c3cccc(N)c3)ccc(NCc3ccccc3)c2F)cc1 [2-[6-(3-aminophenyl)-3-(benzylamino)-2-fluorophenyl]-N-[(4-carbamimidoylphenyl)methyl]acetamide]
2,1.56,"N=C(N)c1ccc(CNC(=O)Cc2c(F)ccc(NCCc3ccccc3)c2F)cc1 [N-[(4-carbamimidoylphenyl)methyl]-2-{2,6-difluoro-3-[(2-phenylethyl)amino]phenyl}acetamide]"
3,6.8,N=C(N)c1ccc(CNC(=O)Cc2c(-c3ccccc3)ccc(NCCc3ccccc3)c2O)cc1 [N-[(4-carbamimidoylphenyl)methyl]-2-{2-hydroxy-6-phenyl-3-[(2-phenylethyl)amino]phenyl}acetamide]

# Second part, the molecule before the results:
row,Compound,IC50 [µM]
1,"N=C(N)c1ccc(CNC(=O)Cc2c(F)ccc(NS(=O)(=O)Cc3ccccc3)c2F)cc1 [N-[(4-carbamimidoylphenyl)methyl]-2-[2,6-difluoro-3-(phenylmethanesulfonamido)phenyl]acetamide]",26.9
2,"CC(C)=Nc1cc(O)c(-c2ccccc2)c(CC(=O)NCc2ccc(C(=N)N)cc2)c1O [N-[(4-carbamimidoylphenyl)methyl]-2-[3,6-dioxo-2-phenyl-5-(propan-2-ylamino)cyclohexa-1,4-dien-1-yl]acetamide]",> 30
